Test results reported in PubChem BioAssay AID463206 (Broad Institute, 2010).
Activity calls are given as the source filed them.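 Rule for the calls: active = caspase luminescence falls with dose and the half-maximal concentration AC50 from the fitted curve is at or below a set limit; inconclusive = flat fit at 30 to 70% signal loss, or invalid fit; inactive = AC50 above the limit, or signal rises instead.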

tested on: INS-1E cytokine-induced caspase-3/7, Caspase-Glo luminescence, 48 h; test: suppression of cytokine-driven beta-cell apoptosis – INS-1E rat cells, luminescence, orthogonal assay for beta-cell apoptosis protection project, dose response (AID 463206)

Row | Structure (SMILES) | AC50
1 | COc1ccc(CCNc2cc(N3CCN(C(=O)c4ccccc4OC)CC3)ccc2[N+](=O)[O-])cc1OC | > 26 µM (inactive)
2 | Cc1nc(Nc2cnc(/C=C/c3cc(C(=O)Nc4cccc(C(F)(F)F)c4)ccc3C)cn2)cc(N2CCNCC2)n1 | > 26 µM (inactive)
3 | O=C(CSc1nnc(Cn2nnc3ccccc32)o1)N(Cc1ccc(F)cc1)c1ccccc1 | > 26 µM (inactive)
4 | CC(C)(C)OC(=O)N1CCC(CNC(=O)c2cccs2)CC1 | > 26 µM (inactive)
5 | COc1ccc(CNCCC(c2ccccc2)c2ccc3c(c2)OCO3)cc1 (stereo unspecified) | > 26 µM (inactive)
6 | Cc1ccc2c(c1)N(C)/C(=C/c1cccc[n+]1CCO)S2 | > 26 µM (inactive)
7 | C/C(=N\NC(=O)c1nnn(-c2nonc2N)c1CN(C)c1ccccc1)c1ccccc1O | > 26 µM (inactive)
8 | Nc1ccc(Br)cc1-c1nc2ccccc2[nH]c1=O | > 26 µM (inactive)
9 | COc1cccc2sc(Nc3nc(-c4ccccn4)cs3)nc12 | > 26 µM (inactive)
10 | CCCOc1ccc(CSc2nc3ccccc3[nH]2)cc1 | > 26 µM (inactive)
11 | C#CCOCCOCCOCCNc1nc(N2CCN(C(=O)CCCCCCCCCCNC(=O)[C@H]([C@@H](C)CC)n3cc(CCCCCN)nn3)CC2)nc(N2CCN(C(=O)CCCCCCCCCCNC(=O)[C@@H]([C@H](C)O)n3cc(C)nn3)CC2)n1 | > 26 µM (inactive)
12 | COc1cc2sc(-c3ccccc3OC)c(-c3ccc(OCCN4CCCCC4)cc3)c2cc1OC | 16 µM
13 | Cc1ccc(NS(=O)(=O)c2ccc(Cl)c(NC(=S)NC(=O)C3CCCCC3)c2)cc1Cl | > 26 µM (inactive)
14 | CCCCn1c(/C=N/Nc2nc3ccccc3[nH]2)nc2ccccc21 | > 26 µM (inactive)
15 | COc1cc(NC(=O)c2ccc([N+](=O)[O-])o2)ccc1NC(=O)c1cccs1 | > 26 µM (inactive)
16 | COC(=O)c1ccc(NC(=O)c2nc(S(=O)(=O)Cc3cccc(C)c3)ncc2Cl)cc1 | > 26 µM (inactive)
17 | C=C[C@H](CC(C)C)N(Cc1ccccc1)S(=O)(=O)N(Cc1ccc(OC)cc1)[C@H](C=C)CC(C)C | > 26 µM (inactive)
18 | CC1(C)CC(N2CCN(Cc3ccccc3)CC2)=CC(=[N+]2CCCCC2)C1 | > 26 µM (inactive)
19 | C/C(=N\NC(=O)c1ccoc1C)c1ccccc1O | > 26 µM (inactive)
20 | CCOC(=O)N1CCN(S(=O)(=O)c2ccc(C(=O)NNc3nc4c(C)cc(C)cc4s3)cc2)CC1 | > 26 µM (inactive)
21 | O=C(CSc1nnc(Cn2nnc3ccccc32)o1)N(Cc1ccc(Cl)cc1)c1ccccc1 | > 26 µM (inactive)
22 | Nc1ccc(Nc2ccc([N+](=O)[O-])cc2[N+](=O)[O-])cc1 | > 26 µM (inactive)
23 | O=C(CN(Cc1ccco1)Cc1ccco1)Nc1cc(S(=O)(=O)N2CCCCC2)ccc1Cl | > 26 µM (inactive)

Row | Structure (SMILES) | AC50
24 | COc1ccccc1OCCCCOc1ccccc1C(C)=O | > 26 µM (inactive)
25 | O=S(=O)(NCC1CCCO1)c1ccc(-c2ccc(S(=O)(=O)NCC3CCCO3)cc2)cc1 (stereo unspecified) | > 26 µM (inactive)
26 | COC(=O)C1=C(C)N(Cc2ccccc2)C(=NCc2ccccc2)N[C@H]1c1cccc(C(F)(F)F)c1 | > 26 µM (inactive)
27 | CCS(=O)(=O)c1ncc(Cl)c(C(=O)Nc2ccc(S(=O)(=O)N3CCCC(C)C3)cc2)n1 (stereo unspecified) | > 26 µM (inactive)
28 | CCCC[n+]1ccn(C2=C([O-])c3ccccc3C(=O)/C2=N\S(=O)(=O)c2ccc(Cl)cc2)c1 | > 26 µM (inactive)
29 | CCCC1(c2ccccc2)NC(=O)N(CC(=O)Nc2cc(C)ccc2OC)C1=O (stereo unspecified) | > 26 µM (inactive)
30 | O=[N+]([O-])c1ccc(N2CCN(C(=S)Nc3ccc(F)cc3)CC2)cc1 | > 26 µM (inactive)
31 | CCC(CC)C(=O)c1c[nH]c(C(=O)NCc2ccccn2)c1 | > 26 µM (inactive)
32 | COc1ccc(S(=O)(=O)N(C(=O)c2ccco2)c2cc3sc(=O)oc3c3ccccc23)cc1 | > 26 µM (inactive)
33 | Cc1ccc2c(c1)Sc1c(ccc3ccccc13)N2 | > 26 µM (inactive)
34 | CC1(C)C[C@@H]2C[C@@](C)(CN2C(=O)c2cc(COc3cccc(C(F)(F)F)c3)on2)C1 | > 12 µM (inactive)
35 | FC(F)(F)c1nnc2c(Sc3ccccc3)nc3ccc(Cl)cc3n12 | > 26 µM (inactive)
36 | Nc1cc2c3c(cccc3c1)C(=O)N(CCN1CCCC1)C2=O | 15.4 µM
37 | CCn1c(=NC(=O)c2ccc(S(=O)(=O)N3CCOCC3)cc2)sc2cccc(OC)c21 | > 26 µM (inactive)
38 | O=C(C1CCC1)N1CCc2cc(S(=O)(=O)Nc3ccc4c(c3)OCCO4)ccc21 | > 26 µM (inactive)
39 | Cc1ccccc1Oc1cc(-n2ncc(Cl)c(Cl)c2=O)ncn1 | > 26 µM (inactive)
40 | CCN(CC)C(=O)C1CCCN(C(=S)Nc2cccc3ccccc23)C1 (stereo unspecified) | > 26 µM (inactive)
41 | Cc1ccc(C(=O)c2c(C)oc3c2C(=O)C(=O)c2ccccc2-3)cc1 | > 26 µM (inactive)
42 | COc1ccc(C(=O)N/N=C/c2ccccc2OC(=O)c2ccccc2)cc1 | > 26 µM (inactive)
43 | CCOc1ccc(-c2c[n+]3c(n2-c2ccccc2)CCCCC3)cc1 | > 26 µM (inactive)
44 | C/C(=N\NC(=O)c1ccccc1Cl)c1ccccn1 | > 26 µM (inactive)
45 | C(=C\c1nc(N2CCCCCC2)c2ccccc2n1)/c1ccccc1 | > 26 µM (inactive)
46 | Cc1ccccc1OCc1n(CC(=O)OC2CC(C)CCC2C(C)C)c2ccccc2[n+]1C (stereo unspecified) | > 26 µM (inactive)
